Test results: patent publication EP0512684B1, “Synergistic herbicidal compositions” (DOWELANCO, priority 1991, dated 1992)

Legend:
Assay type in all cases: in vivo
[1] = test system: Fumaria officinalis; test: Postemergent weed control, field trials (Example II)
Method: In all Examples, the percent kill and control is measured on a scale of 0 percent = no kill and control 100 percent = complete kill and control. Expected control is calculated as 100 -((% control by Compound A) x (% control by Compound B))/(100) [formula] where % control= 100-actual control according to the technique described in Colby, "Calculating Synergistic and Antagonistic Responses of Herbicidal Combinations", Weeds, Volume 15 (1967), pages 20-22 and Colby, "Greenhouse Evaluation of Herbicidal Combinations", Proc. NEWCC, No. 19, pages 312-320. The percent increase over the expected control is calculated as (Actual control)/(Expected Control)x 100 - 100 [formula] Table I A number of compositions in accordance with the present invention were prepared as in Example I and evaluated in field trials to determine their effectiveness in the postemergent control of the weed Fumaria officinalis growing in the presence of spring barley of the variety Triumph. Seeds of the plants spring barley of the variety Triumph and the weed specie Fumaria officinalis were planted in plots 6 meters x 3 meters composed of calcareous clay loam soil. Two months after planting, the plants were sprayed at a rate of 200 litre/hectare with one of the compositions having an active material control such as to give treatment rates shown in Table VI. […]

[2] = test system: Viola arvensis; test: Weed control, visual percent control (Example IV)
Method: (§1) In all Examples, the percent kill and control is measured on a scale of 0 percent = no kill and control 100 percent = complete kill and control. Expected control is calculated as 100 -((% control by Compound A) x (% control by Compound B))/(100) [formula] where % control= 100-actual control according to the technique described in Colby, "Calculating Synergistic and Antagonistic Responses of Herbicidal Combinations", Weeds, Volume 15 (1967), pages 20-22 and Colby, "Greenhouse Evaluation of Herbicidal Combinations", Proc. NEWCC, No. 19, pages 312-320. The percent increase over the expected control is calculated as (Actual control)/(Expected Control)x 100 - 100 [formula] Table I An emulsifiable concentrate of fluroxypyr methyl ester (as compound B) was prepared having the following composition. Varying amounts of this emulsifiable concentrate containing 100 g/l Fluroxypyr methyl ester (as acid equivalent) were added to a suspension concentrate of compound A prepared as in Example I, to provide the desired concentration of Compound B. The resulting formulation was tested against the following weeds, at the growth stage indicated, by the method described above. [table] In each case, the composition was applied ata rate of 200 litres per hectare. The percent of control was assessed by visual percent control (tables VIII to XII) and also by measurement of fresh weight (tables XIII to XVII).

[3] = test system: Galium aparine; test: Weed control, visual percent control (Example IV)
Method: as §1

[4] = test system: Veronica persica; test: Weed control, visual percent control (Example IV)
Method: as §1

[5] = test system: Chenopodium album; test: Postemergent weed control, greenhouse (Example I)
Method: (§2) In all Examples, the percent kill and control is measured on a scale of 0 percent = no kill and control 100 percent = complete kill and control. Representative compositions of the present invention were evaluated to determine their effectiveness in synergistic postemergent weed control operations. Suspension emulsions containing varying concentrations of the methylheptyl ester of ((4-amino-3,5-dichloro-6-fluoro-2-pyridinyl)oxy)-acetic acid (Compound B) and N-(2,6-dichloro-3-methylphenyl)-5,7-dimethoxy-1,2,4,-triazolo(1,5a)pyrimidine-2-sulfonamide (Compound A), were prepared as follows: A 250 g per litre suspension concentrate of Compound A was prepared by wet-milling the following ingredients, until a particle size distribution with a volume median diameter of about 2μm was obtained. Varying amounts of the resulting suspension concentrate were added to water to provide the desired concentration of Compound A. Similarly, varying amounts of a commercially available emulsifiable concentrate containing 200 g/l (as acid equivalent) of fluroxypyr 1 methylheptyl ester (Trade Mark […]-2) were added, to provide the desired concentration of Compound B. In each of the tests which follow, the composition was applied at a rate of 200 litres per hectare. Accordingly, in each case, the amount of water to which the suspension concentrate of Compound A and the emulsifiable concentrate of Compound B was added was sufficient to provide the desired application rates, when the resulting composition was used at this application rate. Seeds of the weed species Bilderdykia convolvulus, Viola arvensis, Lamium purpureum, Chenopodium album and Fumaria officinalis, and seeds of the crop plant winter wheat variety Avalon, were planted in beds of good agricultural soil and grown in a greenhouse. […] The results are shown in Tables I to V. In the tables which follow, those runs which include only one but not both of Compound A and Compound B are included as controls. Expected control is calculated as 100 -((% control by Compound A) x (% control by Compound B))/(100) [formula] where % control= 100-actual control according to the technique described in Colby, "Calculating Synergistic and Antagonistic Responses of Herbicidal Combinations", Weeds, Volume 15 (1967), pages 20-22 and Colby, "Greenhouse Evaluation of Herbicidal Combinations", Proc. NEWCC, No. 19, pages 312-320. The percent increase over the expected control is calculated as (Actual control)/(Expected Control)x 100 - 100 [formula]

[6] = test system: Bilderdykia convolvulus; test: Postemergent weed control, greenhouse (Example I)
Method: as §2

[7] = test system: Fumaria officinalis; test: Postemergent weed control, greenhouse (Example I)
Method: as §2

[8] = test system: Viola arvensis; test: Postemergent weed control, greenhouse (Example I)
Method: as §2

[9] = test system: Lamium purpureum; test: Postemergent weed control, greenhouse (Example I)
Method: as §2

[10] = test system: Viola arvensis; test: Post-emergent weed control by reduction in fresh weight (Examples V, VI and VII)
Method: (§3) In all Examples, the percent kill and control is measured on a scale of 0 percent = no kill and control 100 percent = complete kill and control. Expected control is calculated as 100 -((% control by Compound A) x (% control by Compound B))/(100) [formula] where % control= 100-actual control according to the technique described in Colby, "Calculating Synergistic and Antagonistic Responses of Herbicidal Combinations", Weeds, Volume 15 (1967), pages 20-22 and Colby, "Greenhouse Evaluation of Herbicidal Combinations", Proc. NEWCC, No. 19, pages 312-320. The percent increase over the expected control is calculated as (Actual control)/(Expected Control)x 100 - 100 [formula] Table I A 20% w/w suspension concentrate of fluroxypyr acid in water was prepared by wet milling the ingredients shown in Table XVIII until a particle size distribution with a volume median diameter of about 2µm was obtained. Varying amounts of the resulting suspension concentrate were added to water to provide the desired concentration of fluroxypyr acid. […] Varying amounts of the resulting solutions were further diluted with water to provide the desired concentration of the fluroxypyr salt. Similarly, varying amounts of the suspension concentrate of compound A prepared as in Example 1 were added, to provide the desired concentration of compound A. The formulations resulting from Examples V, VI and VII were evaluated to determine their effectiveness in the post-emergent control of the weeds Viola arvensis, Galium aparine, and Matricaria inodora.

[11] = test system: Matricaria inodora; test: as above
Method: as §3

[12] = test system: Lamium purpureum; test: Weed control by reduction in fresh weight (Example IV)
Method: as §1

COc1cc(OC)n2nc(S(=O)(=O)Nc3c(Cl)ccc(C)c3Cl)nc2n1 [Cmpd A, N-(2,6-dichloro-3-methylphenyl)-5,7-dimethoxy-1,2,4,-triazolo(1,5a)pyrimidine-2-sulfonamide]
Actual Control 28 days after treatment (%) ([1]; Cmpd A 10.0 g/ha alone): 0.0%
Actual Control 28 days after treatment (%) ([1]; Cmpd A 20.0 g/ha alone): 15.0%
Actual Control (%) 19 days after treatment ([2]; Cmpd A 3.125 g/ha alone): 22%
Actual Control (%) 19 days after treatment ([2]; Cmpd A 6.25 g/ha alone): 12%
Actual Control (%) 19 days after treatment ([2]; Cmpd A 12.5 g/ha alone): 55%
Actual Control (%) 19 days after treatment ([2]; Cmpd A 25.0 g/ha alone): 72%
Actual Control (%) 19 days after treatment ([3]; Cmpd A 3.125 g/ha alone): 0%
Actual Control (%) 19 days after treatment ([3]; Cmpd A 6.25 g/ha alone): 0%
Actual Control (%) 19 days after treatment ([3]; Cmpd A 12.5 g/ha alone): 0%
Actual Control (%) 19 days after treatment ([3]; Cmpd A 25.0 g/ha alone): 0%
Actual Control (%) 19 days after treatment ([4]; Cmpd A 3.125 g/ha alone): 10%
Actual Control (%) 19 days after treatment ([4]; Cmpd A 6.25 g/ha alone): 20%
Actual Control (%) 19 days after treatment ([4]; Cmpd A 12.5 g/ha alone): 28%
Actual Control (%) 19 days after treatment ([4]; Cmpd A 25.0 g/ha alone): 30%
Actual Control 19 days after treatment (%) ([5]; Cmpd A 3.125 g/ha alone): 47%
Actual Control 19 days after treatment (%) ([5]; Cmpd A 6.25 g/ha alone): 60%
Actual Control 19 days after treatment (%) ([5]; Cmpd A 12.50 g/ha alone): 55%
Actual Control 19 days after treatment (%) ([5]; Cmpd A 25.00 g/ha alone): 60%
Actual Control (%) 32 days after treatment ([6]; Cmpd A 6.25 g/ha alone): 0%
Actual Control (%) 32 days after treatment ([6]; Cmpd A 12.50 g/ha alone): 45%
Actual Control (%) 32 days after treatment ([6]; Cmpd A 25.00 g/ha alone): 30%
Actual Control (%) 32 days after treatment ([6]; Cmpd A 50.00 g/ha alone): 53%
Actual Control 19 days after treatment (%) ([7]; Cmpd A 3.125 g/ha alone): 5%
Actual Control 19 days after treatment (%) ([7]; Cmpd A 6.25 g/ha alone): 18%
Actual Control 19 days after treatment (%) ([7]; Cmpd A 12.50 g/ha alone): 0%
Actual Control 19 days after treatment (%) ([7]; Cmpd A 25.00 g/ha alone): 18%
Actual Control (%) 17 days after treatment ([8]; Cmpd A 6.25 g/ha alone): 15%
Actual Control (%) 17 days after treatment ([8]; Cmpd A 12.50 g/ha alone): 36%
Actual Control (%) 17 days after treatment ([8]; Cmpd A 25.00 g/ha alone): 39%
Actual Control (%) 17 days after treatment ([8]; Cmpd A 50.00 g/ha alone): 50%
Actual Control (%) 12 days after treatment ([9]; Cmpd A 6.25 g/ha alone): 18%
Actual Control (%) 12 days after treatment ([9]; Cmpd A 12.50 g/ha alone): 24%
Actual Control (%) 12 days after treatment ([9]; Cmpd A 25.00 g/ha alone): 25%
Actual Control (%) 12 days after treatment ([9]; Cmpd A 50.00 g/ha alone): 23%
Actual Control (%) 23 days after treatment ([10]; Cmpd A 6.25 g/ha): 20%
Actual Control (%) 23 days after treatment ([10]; Cmpd A 6.25 g/ha, Table XX): 20%
Actual Control (%) 23 days after treatment ([10]; Cmpd A 12.50 g/ha): 50%
Actual Control (%) 23 days after treatment ([10]; Cmpd A 12.50 g/ha, Table XX): 50%
Actual Control (%) 23 days after treatment ([10]; Cmpd A 25.00 g/ha): 52%
Actual Control (%) 23 days after treatment ([10]; Cmpd A 25.00 g/ha, Table XX): 52%
Actual Control (%) 23 days after treatment ([10]; Cmpd A 50.00 g/ha): 60%
Actual Control (%) 23 days after treatment ([10]; Cmpd A 50.00 g/ha, Table XX): 60%
Actual Control (%) 17 days after treatment ([11]; Cmpd A 6.25 g/ha): 7%
Actual Control (%) 17 days after treatment ([11]; Cmpd A 12.50 g/ha): 32%
Actual Control (%) 17 days after treatment ([11]; Cmpd A 25.00 g/ha): 75%
Actual Control (%) 17 days after treatment ([11]; Cmpd A 50.00 g/ha): 72%
Actual Reduction (%) 19 days after treatment ([12]; Cmpd A 3.125 g/ha): 4%
Actual Reduction (%) 19 days after treatment ([12]; Cmpd A 6.25 g/ha): 0%
Actual Reduction (%) 19 days after treatment ([12]; Cmpd A 12.5 g/ha): 19%
Actual Reduction (%) 19 days after treatment ([12]; Cmpd A 25.0 g/ha): 11%
